Laboratory results: patent US20060009445A1, “Tumor-inhibiting anellated azepinone derivatives” (Faustus Forschungs CIE. Translational Cancer Research GmbH, priority 2002, published 2006)

Legend:
Format in all cases: cell-based
[1] = test system: CCRF-CEM; experiment: XTT assay, tumor-inhibiting effect in vitro, CCRF-CEM; conditions: Homo sapiens, incubation period 48 hours
Method: (§1) The tumor-inhibiting effect was tested in vitro in the XTT assay with an example of various cell lines. The incubation period was 48 hours (IC50 values in μM).

[2] = test system: K-562; experiment: XTT assay, tumor-inhibiting effect in vitro, K-562; conditions: Homo sapiens, K562, incubation period 48 hours
Method: as §1

[3] = test system: MOLT-4; experiment: XTT assay, tumor-inhibiting effect in vitro, MOLT-4; conditions: Homo sapiens, incubation period 48 hours
Method: as §1

[4] = test system: COLO 205; experiment: XTT assay, tumor-inhibiting effect in vitro, COLO 205; conditions: Homo sapiens, incubation period 48 hours
Method: as §1

[5] = test system: HCT-15; experiment: XTT assay, tumor-inhibiting effect in vitro, HCT-15; conditions: Homo sapiens, incubation period 48 hours
Method: as §1

[6] = test system: HCT-116; experiment: XTT assay, tumor-inhibiting effect in vitro, HCT-116; conditions: Homo sapiens, incubation period 48 hours
Method: as §1

[7] = test system: HT-29; experiment: XTT assay, tumor-inhibiting effect in vitro, HT-29; conditions: Homo sapiens, incubation period 48 hours
Method: as §1

[8] = test system: SW-620; experiment: XTT assay, tumor-inhibiting effect in vitro, SW-620; conditions: Homo sapiens, incubation period 48 hours
Method: as §1

[9] = test system: MCF-7; experiment: XTT assay, tumor-inhibiting effect in vitro, MCF-7; conditions: Homo sapiens, MCF7, incubation period 48 hours
Method: as §1

[10] = test system: OVCAR 3; experiment: XTT assay, tumor-inhibiting effect in vitro, OVCAR 3; conditions: Homo sapiens, incubation period 48 hours
Method: as §1

[11] = test system: NCI-H460; experiment: XTT assay, tumor-inhibiting effect in vitro, NCI-H460; conditions: Homo sapiens, incubation period 48 hours
Method: as §1

[12] = test system: NCI-H226; experiment: XTT assay, tumor-inhibiting effect in vitro, NCI-H226; conditions: Homo sapiens, incubation period 48 hours
Method: as §1

[13] = test system: SK-MEL-5; experiment: XTT assay, tumor-inhibiting effect in vitro, SK-MEL-5; conditions: Homo sapiens, incubation period 48 hours
Method: as §1

[14] = test system: SK-MEL-28; experiment: XTT assay, tumor-inhibiting effect in vitro, SK-MEL-28; conditions: Homo sapiens, incubation period 48 hours
Method: as §1

Row | Structure (SMILES) | IC50 [1] [µM] | IC50 [2] [µM] | IC50 [3] [µM] | IC50 [4] [µM] | IC50 [5] [µM] | IC50 [6] [µM] | IC50 [7] [µM] | IC50 [8] [µM] | IC50 [9] [µM] | IC50 [10] [µM] | IC50 [11] [µM] | IC50 [12] [µM] | IC50 [13] [µM] | IC50 [14] [µM]
1 | Oc1ccccc1/C=N/N=C1\Cc2c([nH]c3ccc(Br)cc23)-c2ccccc2N1 [KP1437] | 1.66 | 1.56 | 2.9 | 5.25 | 0.74 | 2.56 | 6.61 | 3.83 | 10.4 | 6.82 | 9.51 | 7.19 | 10 | 7.98
2 | NC(=S)N/N=C1\Cc2c([nH]c3ccc(Br)cc23)-c2ccccc2N1 [KP 1428] | 5.47 | 48.4 | 2.63 | 13.3 | 24.1 | 26.4 | 9.46 | 22.8 | 20.7 | 2.59 | 14.4 | 30.1 | 19.4 | 18.5
